# Data as given in ChEMBL document CHEMBL1127244, “Alternative strategies towards the identification of chemical lead compounds by rational design” (Bioorg Med Chem Lett, 1994).
# Legend:
# [1] = molecular target: T1, Cholecystokinin receptor type A (Rattus norvegicus, UniProt P30551); assay: Binding affinity towards CCK-A receptor in rat pancreas using [125I]Bolton-Hunter CCK-8 as radioligand; Value ranges from 11-16 uM; format: tissue-based
# T1 sequence (P30551 whole entry): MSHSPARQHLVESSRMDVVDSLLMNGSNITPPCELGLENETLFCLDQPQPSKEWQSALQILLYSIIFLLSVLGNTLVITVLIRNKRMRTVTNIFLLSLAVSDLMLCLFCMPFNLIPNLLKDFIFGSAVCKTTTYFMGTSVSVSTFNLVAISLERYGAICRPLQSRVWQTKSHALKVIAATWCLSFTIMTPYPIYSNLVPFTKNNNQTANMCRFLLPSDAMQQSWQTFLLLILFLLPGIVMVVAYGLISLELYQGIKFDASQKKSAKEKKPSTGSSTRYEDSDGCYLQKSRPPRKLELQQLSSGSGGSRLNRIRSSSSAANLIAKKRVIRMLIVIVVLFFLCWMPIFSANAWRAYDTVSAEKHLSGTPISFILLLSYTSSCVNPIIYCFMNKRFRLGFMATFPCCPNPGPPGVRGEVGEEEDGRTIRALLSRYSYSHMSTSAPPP
# Substance-P receptor [2] = molecular target: T2, Substance-P receptor (Cavia porcellus, UniProt P30547); assay: Binding affinity towards NK-1 receptor in guinea pig cerebral cortex using [125I]-Bolton-Hunter substance P as radioligand; Value ranges from 7.3-8.8 uM; format: tissue-based
# T2 sequence (P30547 whole entry): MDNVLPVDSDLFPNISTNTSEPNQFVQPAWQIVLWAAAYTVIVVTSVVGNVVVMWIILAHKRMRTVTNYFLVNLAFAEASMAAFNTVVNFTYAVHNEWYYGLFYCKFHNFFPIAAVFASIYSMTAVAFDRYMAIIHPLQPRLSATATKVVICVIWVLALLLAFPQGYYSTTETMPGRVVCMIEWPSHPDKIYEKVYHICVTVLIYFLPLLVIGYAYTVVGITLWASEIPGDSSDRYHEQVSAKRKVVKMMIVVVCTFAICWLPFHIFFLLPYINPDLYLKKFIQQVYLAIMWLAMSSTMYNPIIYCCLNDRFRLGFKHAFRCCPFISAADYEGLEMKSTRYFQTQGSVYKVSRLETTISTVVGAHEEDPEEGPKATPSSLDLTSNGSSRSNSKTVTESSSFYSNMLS
# Neuromedin-K receptor [3] = molecular target: T3, Neuromedin-K receptor (Cavia porcellus, UniProt P30098); assay: Binding affinity towards Tachykinin receptor 3 in guinea pig cerebral cortex using [3H]senktide as radioligand; Inactive (>>10 uM); format: tissue-based
# T3 sequence (P30098 whole entry): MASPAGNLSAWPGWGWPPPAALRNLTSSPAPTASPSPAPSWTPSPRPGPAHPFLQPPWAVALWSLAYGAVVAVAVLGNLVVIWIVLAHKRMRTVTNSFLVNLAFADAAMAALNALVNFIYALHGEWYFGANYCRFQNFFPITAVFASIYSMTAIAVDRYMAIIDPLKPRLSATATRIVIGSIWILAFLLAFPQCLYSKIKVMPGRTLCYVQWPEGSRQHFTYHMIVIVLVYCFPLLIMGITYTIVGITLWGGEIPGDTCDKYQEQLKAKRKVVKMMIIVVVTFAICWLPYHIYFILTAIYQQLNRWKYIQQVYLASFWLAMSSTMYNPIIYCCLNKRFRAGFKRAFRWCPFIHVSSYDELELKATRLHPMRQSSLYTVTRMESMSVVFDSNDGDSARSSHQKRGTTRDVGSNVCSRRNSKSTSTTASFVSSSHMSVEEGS
# Substance-K receptor [4] = molecular target: T4, Substance-K receptor (Mesocricetus auratus, UniProt P51144); assay: Binding affinity towards Tachykinin receptor 2 in hamster urinary bladder using [125I]-Neurokinin A as radioligand; Inactive (>>10 uM); format: tissue-based
# T4 sequence (P51144 whole entry): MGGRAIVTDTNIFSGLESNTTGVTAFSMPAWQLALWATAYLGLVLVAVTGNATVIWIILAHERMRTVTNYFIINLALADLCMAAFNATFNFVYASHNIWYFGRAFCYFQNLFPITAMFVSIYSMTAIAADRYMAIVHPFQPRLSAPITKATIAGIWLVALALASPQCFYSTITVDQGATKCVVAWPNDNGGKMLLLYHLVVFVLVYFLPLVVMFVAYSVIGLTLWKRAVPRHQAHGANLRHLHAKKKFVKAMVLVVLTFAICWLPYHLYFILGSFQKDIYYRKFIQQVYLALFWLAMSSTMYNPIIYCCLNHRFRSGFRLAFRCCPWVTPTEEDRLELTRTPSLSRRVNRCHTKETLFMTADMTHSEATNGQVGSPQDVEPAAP
# [5] = molecular target: T5, Gastrin/cholecystokinin type B receptor (Mus musculus, UniProt P56481); assay: Binding affinity towards CCK-B receptor in mouse cerebral cortex using [125I]Bolton-Hunter CCK-8 as radioligand; Inactive (>>10 uM); format: tissue-based
# T5 sequence (P56481 whole entry): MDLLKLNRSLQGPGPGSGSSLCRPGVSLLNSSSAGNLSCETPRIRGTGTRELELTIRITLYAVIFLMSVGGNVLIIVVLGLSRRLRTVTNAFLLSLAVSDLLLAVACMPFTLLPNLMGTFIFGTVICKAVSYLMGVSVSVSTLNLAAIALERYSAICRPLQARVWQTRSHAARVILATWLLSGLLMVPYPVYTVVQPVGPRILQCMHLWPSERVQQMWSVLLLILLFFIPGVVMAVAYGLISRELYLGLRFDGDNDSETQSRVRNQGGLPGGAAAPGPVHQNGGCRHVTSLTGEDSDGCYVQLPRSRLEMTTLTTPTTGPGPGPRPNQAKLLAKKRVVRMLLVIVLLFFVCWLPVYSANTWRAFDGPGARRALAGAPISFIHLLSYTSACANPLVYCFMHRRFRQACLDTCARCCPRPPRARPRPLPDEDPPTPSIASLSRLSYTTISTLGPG
# Substance-P receptor [6] = molecular target: T2, Substance-P receptor; assay: Binding affinity towards NK-1 receptor in guinea pig cerebral cortex using [125I]Bolton-Hunter substance P as radioligand; Inactive (>>10 uM); format: tissue-based
# Substance-K receptor [7] = molecular target: T4, Substance-K receptor; assay: Binding affinity towards Tachykinin receptor 2 in hamster urinary bladder using [125I]neurokinin A as radioligand; Value ranges from 2.6-11 uM
# [8] = molecular target: T1, Cholecystokinin receptor type A; assay: Binding affinity towards CCK-A receptor in rat pancreas using [125I]Bolton-Hunter CCK-8 as radioligand; Value ranges from 4.7-7.1 uM; format: tissue-based
# [9] = molecular target: T5, Gastrin/cholecystokinin type B receptor; assay: Binding affinity towards CCK-B receptor in mouse cerebral cortex using [125I]Bolton-Hunter CCK-8 as radioligand; Value ranges from 7.8-9.3 uM; format: tissue-based
# [10] = molecular target: T1, Cholecystokinin receptor type A; assay: Binding affinity towards CCK-A receptor in rat pancreas using [125I]Bolton-Hunter CCK-8 as radioligand; Value ranges from 12-20 uM; format: tissue-based
# Neuromedin-K receptor [11] = molecular target: T3, Neuromedin-K receptor; assay: Binding affinity towards Tachykinin receptor 3 in guinea pig cerebral cortex using [3H]senktide as radioligand; Value ranges from 5.8-14u M; format: tissue-based
# Substance-K receptor [12] = molecular target: T4, Substance-K receptor; assay: Binding affinity towards Tachykinin receptor 2 in hamster urinary bladder using [125I]neurokinin A as radioligand; Value ranges from 4.6-9.0 uM
# [13] = molecular target: T1, Cholecystokinin receptor type A; assay: Binding affinity towards CCK-A receptor in rat pancreas using [125I]Bolton-Hunter CCK-8 as radioligand; Value ranges from 3.3-5.4 uM; format: tissue-based
# [14] = molecular target: T5, Gastrin/cholecystokinin type B receptor; assay: Binding affinity towards CCK-B receptor in mouse cerebral cortex using [125I]Bolton-Hunter CCK-8 as radioligand; Value ranges from 9.8-25 uM; format: tissue-based
# [15] = molecular target: T1, Cholecystokinin receptor type A; assay: Binding affinity towards CCK-A receptor in rat pancreas using [125I]Bolton-Hunter CCK-8 as radioligand; Value ranges from 3.5-4.6 uM; format: tissue-based
# [16] = molecular target: T1, Cholecystokinin receptor type A; assay: Binding affinity towards CCK-A receptor in rat pancreas using [125I]Bolton-Hunter CCK-8 as radioligand; Value ranges from 4.1-6.4 uM; format: tissue-based
# Neuromedin-K receptor [17] = molecular target: T3, Neuromedin-K receptor; assay: Binding affinity towards Tachykinin receptor 3 in guinea pig cerebral cortex using [3H]senktide as radioligand; Value ranges from 8.2-9.4 uM; format: tissue-based
Compound,IC50 (Neuromedin-K receptor [3]),IC50 (Substance-K receptor [4]),IC50 [5],IC50 (Substance-P receptor [6]),also measured
O=C1CCN(C(=O)CCc2c[nH]c3ccccc23)CC1Cc1ccccc1 (stereo unspecified),Not Active,,,Not Active,IC50 (Substance-K receptor [7]): 6.9 µM
CCOP(=O)(OCC)OC1=CCN(Cc2ccccc2)CC1Cc1cn(C(=O)OC(C)(C)C)c2ccccc12 (stereo unspecified),Not Active,Not Active,,Not Active,IC50 [8]: 5.5 µM; IC50 [9]: 8.5 µM
O=C1CCN(Cc2ccccc2)CC1Cc1c[nH]c2ccccc12 (stereo unspecified),,,Not Active,Not Active,IC50 [10]: 16 µM; IC50 (Neuromedin-K receptor [11]): 10 µM; IC50 (Substance-K receptor [12]): 6.8 µM
O=C1[C@H](Cc2c[nH]c3ccccc23)CN(Cc2ccccc2)C[C@@H]1Cc1c[nH]c2ccccc12,Not Active,Not Active,,Not Active,IC50 [13]: 4.1 µM; IC50 [14]: 15 µM
O=C1C(Cc2c[nH]c3ccccc23)CN(Cc2ccccc2)C[C@@H]1Cc1c[nH]c2ccccc12 (stereo partly specified),Not Active,Not Active,Not Active,Not Active,IC50 [15]: 4 µM
CC(C)(C)OC(=O)n1cc(CC2CN(Cc3ccccc3)CCC2O)c2ccccc21 (stereo unspecified),Not Active,Not Active,Not Active,Not Active,IC50 [16]: 5.2 µM

# More lines, main results first:
IC50 (Neuromedin-K receptor [3]),IC50 (Substance-K receptor [4]),IC50 [5],IC50 (Substance-P receptor [6]),Compound,also measured
Not Active,Not Active,Not Active,,O=C1CCN(C(=O)OCc2ccccc2)CC1Cc1ccccc1 (stereo unspecified),IC50 [1]: 13 µM; IC50 (Substance-P receptor [2]): 8.1 µM
,Not Active,,Not Active,OC1CCN(Cc2ccccc2)C[C@@H]1Cc1c[nH]c2ccccc12 (stereo partly specified),IC50 (Neuromedin-K receptor [17]): 8.8 µM
